According to publication PMC3760508 (Journal of medicinal chemistry, 2009):

Tests used:
cruzain = cruzain (Trypanosoma cruzi, UniProt P25779); assay: biochemical; format: biochemical; conditions: for change of cruzain IC50 between low and high detergent concentration: 0.001% vs 0.01% Triton X-100; for cruzain inhibition (in words): Figure 1 analogs
AmpC β-lactamase = AmpC β-lactamase (Escherichia coli, UniProt P00811); assay: AmpC β-lactamase detergent-sensitive inhibition; format: biochemical; conditions: reversal by 0.01% Triton
AmpC β-lactamase, sequence (P00811 20-377): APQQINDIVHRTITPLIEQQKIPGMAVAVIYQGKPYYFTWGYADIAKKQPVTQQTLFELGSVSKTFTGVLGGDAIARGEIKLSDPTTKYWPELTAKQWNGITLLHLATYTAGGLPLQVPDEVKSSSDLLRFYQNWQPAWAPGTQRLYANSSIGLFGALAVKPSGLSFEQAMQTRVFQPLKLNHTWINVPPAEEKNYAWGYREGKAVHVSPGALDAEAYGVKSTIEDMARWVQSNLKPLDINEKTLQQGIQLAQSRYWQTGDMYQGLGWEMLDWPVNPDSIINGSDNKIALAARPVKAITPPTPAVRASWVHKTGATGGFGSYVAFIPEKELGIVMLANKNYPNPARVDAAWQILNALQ

particle = format: physicochemical; conditions: for particles? lowest evaluated concentration at which particle formation was observed: flow cytometry, in some cases confirmed by DLS
[1] = high Triton (0.01% Triton X-100), 23 at 50 μM
[2] = low Triton (0.001% Triton X-100), 23 at 5 μM, 1 at 25 μM

cruzain, sequence (P25779 123-467): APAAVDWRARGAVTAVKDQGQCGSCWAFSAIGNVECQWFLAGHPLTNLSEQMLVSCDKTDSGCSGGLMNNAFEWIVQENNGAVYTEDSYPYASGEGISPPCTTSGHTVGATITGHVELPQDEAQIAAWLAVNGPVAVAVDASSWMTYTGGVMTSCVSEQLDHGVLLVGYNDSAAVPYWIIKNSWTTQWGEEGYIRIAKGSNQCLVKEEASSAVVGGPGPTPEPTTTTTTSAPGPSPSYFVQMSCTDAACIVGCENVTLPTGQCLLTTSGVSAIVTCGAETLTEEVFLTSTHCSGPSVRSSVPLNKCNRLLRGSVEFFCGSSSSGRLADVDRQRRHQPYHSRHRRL

SMILES	change of cruzain IC50 between low and high detergent concentration (cruzain)	mode of cruzain inhibition (cruzain; [1])	particles? lowest evaluated concentration at which particle formation was observed (particle)	other results
Nc1ncccc1C(=O)OCC(=O)Nc1cc(Cl)ccc1Cl [Compound 1]	~ 3 fold	competitive inhibition	25 µM	dependence of cruzain inhibition on incubation time (cruzain; 0.01% Triton X-100): independent of incubation time; mode of cruzain inhibition (cruzain; [2]): non-competitive; detergent-reversible inhibition of AmpC β-lactamase (AmpC β-lactamase): found to inhibit AmpC, and its inhibition was reversed by 0.01% Triton
Nc1ncccc1C(=O)OCC(=O)NC1CCCCCC1 [Compound 2]	essentially unaltered	competitive inhibitors	–	–
CCC(NC(=O)COC(=O)c1cccnc1N)c1ccc(Br)cc1 (stereo not shown) [Compound 3]	essentially unaltered	competitive inhibitors	–	–
O=C(COC(=O)c1ccccn1)Nc1cc(Cl)ccc1Cl [Compound 4]	–	–	–	cruzain inhibition (in words) (cruzain): essentially inactive
Cc1cccc(C(=O)OCC(=O)Nc2cc(Cl)ccc2Cl)c1 [Compound 5]	–	–	–	cruzain inhibition (in words) (cruzain): essentially inactive
Nc1ccccc1-c1nnc(C(=O)Nc2ccc3oc4c(c3c2)CCCC4)o1 [Compound 12]	–	–	>100 µM	formation of colloidal aggregates (particles) (particle; DLS and flow cytometry, 0.001% Triton X-100, relevant inhibitory concentrations): the exception
CCN1CCC[C@H]1CNC(=O)c1nnc(-c2ccccc2N)o1 [Compound 18]	–	–	>200 µM	–
Nc1ccccc1-c1nnc(C(=O)Nc2cc(-c3cccs3)[nH]n2)o1 [Compound 23]	–	competitive	–	IC50 (cruzain): 82.4 µM; mode of cruzain inhibition (cruzain; [2]): non-competitive
Cc1cc(NC(=O)c2nnc(-c3ccccc3N)o2)n[nH]1 [Compound 25]	–	–	–	detergent-reversible inhibition of AmpC β-lactamase (AmpC β-lactamase): the exception
